Here are results for 16 molecules from patent US5814634A, “Alkylenediamine derivative anti-ulcer drug and antibacterial drug” (Shiseido Co. Ltd., priority 1996, dated 1998).

In series [1] the test system is stress ulcer. The experiment in a line: WIS: Restraint and Water Immersion Stress-Induced Ulcer Inhibition Test. The series is classed as in vivo, rat (male Crj:SD or Slc:SD). The settings on record: for WIS: ulcer formation inhibitory rate: 100 mg/kg oral, rats, water immersion stress 7 hours. As for the experimental part:
WIS: Restraint and Water Immersion Stress-Induced Ulcer Inhibition Test
The degree of inhibition of the stress ulcer formation is tested.
Male Crj:SD or Slc:SD rats (6 to 7-week-old) were fasted overnight, but allowed free access to water. Each group has 5 to 8 of these rats. The sample compound was dissolved or suspended in an aqueous solution of 0.3% sodium carboxymethylcellulose or 0.05% Tween 80 and then was orally administered (100 mg/10 ml/kg). To a control group, the vehicle was administered. 10 minutes later, the rats were placed in a stress cage and immersed to the level of xipfoid process in a water bath (21° C.) for 7 hours. At the end of the stress, the rats were sacrificed by inhalation of ether or carbon dioxide. Then, the stomach of each was removed, inflated by injecting 10 ml of 5% formalin neutral buffer solution, and immersed in 1% formalin neutral buffer solution for 30 minutes or more to be fixed. The stomach was incised along the greater curvature and then the length of each erosion in the glandular portion was determined under dissecting microscope. The sum of the length of erosions per stomach was defined as ulcer index (UI).
The effect obtained when 100 mg/kg of the sample compound had been administered was expressed as ulcer formation inhibitory rate (%) as follows: [formula] VOL, TAO: Acid Secretion Inhibition Test In Vivo i) Meaning

For series [2], the system named is Male Slc:ICR mice. Set-up: species or system mouse (male Slc:ICR). The settings on record: mouse, in vivo. Here is the method:
AT: Single Dose Toxicity Pretest
Male Slc:ICR mice (5-week-old) were used. Each group has 3 to 5 mice and each mouse was fasted, but allowed free access to water, for 4 to 5 hours from 9 a.m. in the test day. Then, 2,000 mg/10 ml/kg of the sample compound dissolved or suspended in an aqueous solution of 0.5% sodium carboxymethyl cellulose was orally administered thereto. To a control, only the vehicle was administered. […] The body weight was measured before and after the fasting as well as at the same time everyday. The dead animals were immediately subjected to autopsy and their organs were observed microscopically. Also, the living animals were sacrificed with ether or carbon dioxide one week after the administration and then their organs were observed microscopically.
The toxicity at the single dose of 2,000 mg/kg of the sample compound was expressed as being classified into 5 levels.
5: Mortality rate is 0%; no toxicity is found at all both in behavior and organs.
4: Mortality rate is 0%; while no toxicity is found in organs, slight toxicity is observed in behavior and body weight increase.
3: While there is a dead animal (though not all the animals are dead), no toxicity is found in organs.
2: Regardless of whether there is a dead animal or not, toxicity is found in organs.
1: All the animals are dead.

Series [3] in a line: in vitro. The settings on record: rabbit, gastric mucosal cells.
Series [4] concerns isolated gastric fundic gland. The experiment in a line: CAP: Acid Secretion Inhibition Test In Vitro ([14C]-aminopyrine uptake). The series is classed as cell-based, rabbit (male Japanese White). The settings on record: Oryctolagus cuniculus, 40 min; 10^-5 M compound, 10^-5 M histamine, rabbit isolated gastric fundic gland, 37° C., 40 minutes; read-out: CAP: acid secretion inhibitory rate. As for the experimental part: With respect to the gastric juice volume (VOL) and the total acid output (TAO), the effects obtained when 100 mg/kg of the sample compound had been administered were expressed as their respective inhibitory rates (%) as follows: [formula] CAP: Acid Secretion Inhibition Test In Vitro i) Meaning
The acid secretion inhibitory activity in a cell level is studied. It can also be used for studying the mechanism of the effect.
ii-a) Preparation of isolated gastric fundus gland suspension
First, an isolated gastric fundic gland sample was prepared. […] Immediately thereafter, the stomach was removed and, after its pyloric and cardiac antrum were severed, incised along its greater curvature into two sheets. The gastric contents adhering to the mucosal surface was washed out with ice-cooled PBS (-) and then carefully washed therein. The gastric wall was spread on a cork board with its mucosal surface facing up and the feed and mucus thereon were completely removed with sterile gauze. The mucosa was separated therefrom by a spatula and then collected in ice-cooled PBS (-). After being washed twice with PBS (-), the mucosa was minced into 2-3 mm^3 pieces by scissors. These pieces were further washed twice with a nutrient solution. The nutrient solution comprises 132.4 mM of NaCl, 5.4 mM of KCl, 5 mM of Na2 HPO4.12H2 O, 1 mM of NaH2 PO4.2H2 O, 1.2 mM of MgSO4, 1 mM of CaCl2, 25 mM of HEPES, 2 mg/ml of glucose, and 1 mg/ml of BSA. Into 70 ml of the nutrient solution containing 1 mg/ml of collagenase, minced mucosal pieces were dispersed and intensely stirred in a conical flask with a stirrer at 37° C. for 40 to 60 minutes. During this period, 100% O2 was sprayed on the nutrient solution surface and the pH was appropriately measured such that it was immediately adjusted to pH 7.4, when the value was therebelow, with a base. The nutrient solution was added to the reaction solution so as to attain the total amount of about 200 ml. After being filtered through a mesh, the suspension was divisionally introduced into 50 ml centrifuge tubes and left for 15 minutes such that gastric fundic gland was deposited. The supernatant was repeatedly removed by an aspirator, dispersed in the nutrient solution, and then left such that the gastric fundic gland was washed three times. At this time, without using a pipette, the suspension was alternately introduced into two centrifuge tubes so as to effect dispersion. The number of cells was counted under microscope and adjusted to 1.6×10^6 cells/ml.
ii-b) [^14 C]-aminopyrine uptake test
Then, [^14 C]-aminopyrine uptake test was performed. After an Eppendorf tube was weighed, 10 μl (final concentration: 10^-5 M) of histamine dissolved in the above-mentioned nutrient solution, 10 μl (final concentration: 10^-5 M) of the test compound dissolved in DMSO, and 10 μl (final concentration: 0.05 μCi/ml) of [^14 C]-aminopyrine diluted with the nutrient solution were introduced therein and then 970 μl of the isolated gastric fundic gland suspension prepared above was added thereto. Subsequently, this mixture was shaken at 37° C. for 40 minutes at 125 cycles/minute. After being centrifuged for 30 minutes, 200 μl of its supernatant was collected into a mini-vial, while the rest was removed by an aspirator. The gland pellet was completely dried as the tube with its lid being opened was kept for one night in a drying oven at 80° C. and then the lid was closed and the weight was determined at room temperature. Then 100 μl of 1N KOH was added thereto and the tube with its lid being closed was treated at 60° C. for 1 to 2 hours so as to dissolve the pellet. Then, the contents thereof were transferred to a mini-vial. Into the mini-vial containing the supernatant or gland pellet, 4 ml of Atomlite™ was added and then the radioactivity was measured by a liquid scintillation counter. […]

Regarding `COc1cc(C(=O)NCCN2CCCCC2)cc(OC/C=C(\C)CCC=C(C)C)c1OC` [Example 24], the “WIS: ulcer formation inhibitory rate” value in series [1] amounted to 72%. Besides, the anti-ulcer effect result in series [1] (result in words) is on record as “more anti-ulcer effect”. Besides, the “AT: toxicity at single dose, 5 levels” value in series [2] amounted to 5. For the same molecule, the cytotoxicity at 4 h, 100 µM in series [3] was found to be 30%.
Consider `COc1ccc(C(=O)NCCN2CCCCC2)cc1OC/C=C(\C)CCC=C(C)C` [Example 23], for which the “WIS: ulcer formation inhibitory rate” value in series [1] is 56%. In addition, the “AT: toxicity at single dose, 5 levels” value in series [2] was found to be 3. In addition, the cytotoxicity at 4 h, 100 µM in series [3] was determined as 43%.
The like results for `CC(C)=CCC/C(C)=C/COc1cc(OC/C=C(\C)CCC=C(C)C)cc(C(=O)NCCN2CCCCC2)c1` [Example 14] were, in that order, 66%, 3 and 26%.
In the same order, the values of `COc1ccc(OC/C=C(\C)CCC=C(C)C)c(C(=O)NCCN2CCCCC2)c1` [Example 20] are 71%, 3 and 35%.
As to `CC(C)=CCOc1cc(C(=O)NCCN2CCOCC2)cc(OCC=C(C)C)c1OCC=C(C)C` [Example 39], the “WIS: ulcer formation inhibitory rate” value in series [1] came out at 76%. For the same molecule, the “AT: toxicity at single dose, 5 levels” value in series [2] amounted to 4.
On to `CC(C)=CCOc1ccc(OCC=C(C)C)c(C(=O)NCCN2CCCCC2)c1` [Example 17], for which the “WIS: ulcer formation inhibitory rate” value in series [1] amounted to 70%. Moreover, the inhibition at 10 µM in series [4] worked out at 100%. In addition, the “AT: toxicity at single dose, 5 levels” value in series [2] amounted to 3. In addition, the cytotoxicity at 4 h, 100 µM in series [3] was -16%.
Regarding `CC(C)=CCC/C(C)=C/COc1cccc(C(=O)NCCN2CCCCC2)c1` [Example 4], the “WIS: ulcer formation inhibitory rate” value in series [1] stood at 84%. Besides, the “AT: toxicity at single dose, 5 levels” value in series [2] turned out to be 3.
In the same order, the values of `CC(C)=CCC/C(C)=C\COc1ccc(C(=O)NCCN2CCCCC2)cc1` [Example 2] are 79% and 3.
`COc1cc(C(=O)NCCN2CCOCC2)cc(OC)c1OC/C=C(\C)CCC=C(C)C` [Example 42]: the “WIS: ulcer formation inhibitory rate” value in series [1] turned out to be 69%. Also, in series [4], the inhibition at 10 µM was 102%. Further, the “AT: toxicity at single dose, 5 levels” value in series [2] is recorded as 4. The cytotoxicity at 4 h, 100 µM in series [3] was determined as 0%.
Regarding `CC(C)=CCC/C(C)=C/COc1ccc(F)cc1C(=O)NCCN1CCCCC1` [Example 6], the “WIS: ulcer formation inhibitory rate” value in series [1] is 80%. Besides, the “effect (anti-ulcer tests)” value in series [1] (result in words, comparison of examples within compound group 1-1) was “the effect has been maintained”. Moreover, the “AT: toxicity at single dose, 5 levels” value in series [2] came to 3. Moreover, the cytotoxicity at 4 h, 100 µM in series [3] worked out at 16%.
Turning to `CC(C)=CCC/C(C)=C/COc1ccc(OC/C=C(\C)CCC=C(C)C)c(C(=O)NCCN2CCCCC2)c1` [Example 13], the “WIS: ulcer formation inhibitory rate” value in series [1] was found to be 67%. In addition, the inhibition at 10 µM in series [4] came to 100%. For the same molecule, in series [2], the “AT: toxicity at single dose, 5 levels” value amounted to 5. The cytotoxicity at 4 h, 100 µM in series [3] is -5%.
With `COc1cc(C(=O)NCCN2CCOCC2)cc(OC/C=C(\C)CCC=C(C)C)c1OC` [Example 44], the “WIS: ulcer formation inhibitory rate” value in series [1] was 61%. The inhibition at 10 µM in series [4] is 100%. Further, the “AT: toxicity at single dose, 5 levels” value in series [2] amounted to 4. In series [3], the cytotoxicity at 4 h, 100 µM amounted to 22%.
In the same order, the values of `CC(C)=CCC/C(C)=C/CC/C(C)=C/COc1ccc(C(=O)NCCN2CCOCC2)cc1` [Example 32] are 55%, 99%, 5 and 58%.
Consider `CC(C)=CCOc1cc(C(=O)NCCN2CCCCC2)cc(OCC=C(C)C)c1OCC=C(C)C` [Example 19], for which the “WIS: ulcer formation inhibitory rate” value in series [1] was found to be 57%. In series [2], the “AT: toxicity at single dose, 5 levels” value came to 4.
As to `COc1cc(C(=O)NCCN2CCCCC2)ccc1OC/C=C(\C)CCC=C(C)C` [Example 25], the “WIS: ulcer formation inhibitory rate” value in series [1] is listed as 44%. The “AT: toxicity at single dose, 5 levels” value in series [2] stood at 3. Besides, the cytotoxicity at 4 h, 100 µM in series [3] was 48%.
As for `CC(C)=CCC/C(C)=C/COc1cccc(C(=O)NCCN2CCOCC2)c1` [Example 29], the “WIS: ulcer formation inhibitory rate” value in series [1] worked out at 63%. In series [4], the inhibition at 10 µM stood at 99%. The “AT: toxicity at single dose, 5 levels” value in series [2] amounted to 5. Further, the cytotoxicity at 4 h, 100 µM in series [3] turned out to be 16%.
